# Reference: patent US4604239A, “Antibiotics” (Eli Lilly and Company, priority 1985, dated 1986)
# Like-named read-outs stand apart in the source and are kept apart here.
# Key:
# [1] = tested on: Staphylococcus aureus; assay: agar-dilution MIC; format: cell-based
# [2] = electrometric titration; format: physicochemical; details: electrometric titration in 66% dimethylformamide in water
# Excerpt: Antibiotic A41030 factor A is a white, crystalline solid.
# [3] = tested on: Hemophilus influenzae; assay: agar-dilution MIC; format: cell-based
# [4] = tested on: Clostridium difficile; format: cell-based
# [5] = tested on: Bacteroides melaninogenicus; assay: agar-dilution MIC; format: cell-based; details: Bacteroides melaninogenicus 2736; Table 14
# [6] = tested on: Staph. aureus; assay: experimental bacterial infection in mice; format: in vivo; details: two doses subcutaneously
# Description: All of the A41030 factors tested have shown in vivo antimicrobial activity against experimental bacterial infections. When two doses of test compound were administered subcutaneously to mice in illustrative infections, the activity observed is measured as an ED50 value [effective dose in mg./kg. to protect fifty percent of the test animals: See Warren Wick, et al., J. Bacteriol. 81, 233-235 (1961)].
# [7] = tested on: Clostridium septicum; assay: agar-dilution MIC; format: cell-based; details: Clostridium septicum 1128; Table 14
# [8] = tested on: Fusobacterium necrophorum; assay: agar-dilution MIC; format: cell-based; details: Fusobacterium necrophorum 6054A; Table 14
# [9] = tested on: Fusobacterium symbiosum; assay: agar-dilution MIC; format: cell-based; details: Fusobacterium symbiosum 1470; Table 14
# [10] = solubility; format: physicochemical
# [11] = tested on: Bacteroides corrodens; assay: agar-dilution MIC; format: cell-based; details: B. corrodens 1874; 24-hour; Table 12
# Excerpt: (§1) The A41030 antibiotics, factors A, B, and C, are active against a genus of anaerobic bacteria identified as Bacteroides sp., the 24-hour MIC values being determined by the agar-dilution method, and are set forth in Table 12, which follows.
# [12] = tested on: Bacteroides vulgatis; assay: agar-dilution MIC; format: cell-based; details: B. vulgatis 1563; 24-hour; Table 12
# Excerpt: as §1
# [13] = tested on: Bacteroides thetaiotaomicron; format: cell-based; details: B. thetaiotaomicron 1438; 24-hour; Table 12
# Excerpt: The agar-dilution procedure described by the International Collaborative study (ICS) group was used to determine the minimum inhibitory concentrations (MIC's).
smiles,measurement,setting,value
NC1C(=O)NC2Cc3ccc(c(Cl)c3)Oc3cc4cc(c3O)Oc3ccc(cc3Cl)C(O)C3NC(=O)C(NC(=O)C4NC(=O)C(NC2=O)c2cc(O)cc(c2)Oc2cc1ccc2O)c1cc(Cl)c(O)c(c1)-c1c(O)cc(O)cc1C(C(=O)O)NC3=O (stereo not drawn) [A41030 factor A],MIC,"[1]; Staphylococcus aureus 3055, Table 11",0.13 µg/mL
same,MIC,"[1]; Staphylococcus aureus 3055, end point after 24 hours, Table 18",0.06 µg/mL
same,MIC,"[1]; Staphylococcus aureus 3074, Penicillin-resistant, Table 11",≤ 0.06 µg/mL
same,MIC,"[1]; Staphylococcus aureus 3131 (**Penicillin, methicillin, and erythromycin), Table 11",≤ 0.06 µg/mL
same,MIC,"[1]; Staphylococcus aureus 3134 (**Penicillin, methicillin, and erythromycin), Table 11",≤ 0.06 µg/mL
same,MIC,"[1]; Staphylococcus aureus H43, Penicillin-resistant, Table 11",≤ 0.06 µg/mL
same,MIC,"[1]; Staphylococcus aureus H290, Table 11",≤ 0.06 µg/mL
same,MIC,"[1]; Staphylococcus aureus S13E, Table 17",0.25 µg/mL
same,MIC,"[1]; Staphylococcus aureus V57, Penicillin-resistant, Table 11",≤ 0.06 µg/mL
same,MIC,"[1]; Staphylococcus aureus V138, end point after 24 hours, Table 18",0.06 µg/mL
same,possibly additional pKa's,[2],> 10.5
same,MIC,"[3]; Haemophilus influenzae 76, end point after 24 hours, Table 18",4 µg/mL
same,MIC,"[3]; Haemophilus influenzae 251, Table 17",2 µg/mL
same,MIC,"[3]; Haemophilus influenzae 312, end point after 24 hours, Table 18",2 µg/mL
same,MIC,"[3]; Haemophilus influenzae 4842, end point after 24 hours, Table 18",2 µg/mL
same,MIC,"[3]; Haemophilus influenzae 16836, end point after 24 hours, Table 18",4 µg/mL
same,MIC,"[3]; Haemophilus influenzae Bond, end point after 24 hours, Table 18",2 µg/mL
same,MIC,"[3]; Haemophilus influenzae Brun, Table 17",8 µg/mL
same,MIC,"[3]; Haemophilus influenzae C.L., end point after 24 hours, Table 18",4 µg/mL
same,MIC,"[3]; Haemophilus influenzae Mx366, end point after 24 hours, Table 18",2 µg/mL
same,MIC,"[3]; Haemophilus influenzae Mx371, end point after 24 hours, Table 18",2 µg/mL
same,MIC,"[3]; Hemophilus influenzae 75-312, Table 9",8 µg/mL
same,MIC,"[3]; Hemophilus influenzae 75-313, Table 9",16 µg/mL
same,MIC,"[3]; Hemophilus influenzae 75-364, Table 9",16 µg/mL
same,MIC,"[3]; Hemophilus influenzae 75-465, Table 9",32 µg/mL
same,MIC,"[3]; Hemophilus influenzae 75-19300, Table 9",16 µg/mL
same,MIC,"[3]; Hemophilus influenzae 75-90383, Table 9",16 µg/mL
same,MIC,"[3]; Hemophilus influenzae 4842, Table 9",8 µg/mL
same,MIC,"[3]; Hemophilus influenzae A. Hall, Table 9",16 µg/mL
same,MIC,"[3]; Hemophilus influenzae Bruno, Table 9",16 µg/mL
same,MIC,"[3]; Hemophilus influenzae C. Steele, Table 9",16 µg/mL
same,MIC,"[3]; Hemophilus influenzae G. Newton, Table 9",32 µg/mL
same,MIC,"[3]; Hemophilus influenzae Howard, Table 9",16 µg/mL
same,MIC,"[3]; Hemophilus influenzae Miller, Table 9",16 µg/mL
same,MIC,"[3]; Hemophilus influenzae P. Wylie, Table 9",16 µg/mL
same,MIC,"[3]; Hemophilus influenzae R251, Table 9",16 µg/mL
same,MIC,"[3]; Hemophilus influenzae R259, Table 9",16 µg/mL
same,MIC,"[3]; Hemophilus influenzae R272, Table 9",16 µg/mL
same,MIC,"[3]; Hemophilus influenzae R274, Table 9",16 µg/mL
same,MIC,"[3]; Hemophilus influenzae S. Ford, Table 9",16 µg/mL
same,MIC,"[4]; Clostridium difficile 78, Table 16",1.0 µg/mL
same,MIC,"[4]; Clostridium difficile 107B, Table 16",1.0 µg/mL
same,MIC,"[4]; Clostridium difficile 111F, Table 16",1.0 µg/mL
same,MIC,"[4]; Clostridium difficile 1153, Table 16",1.0 µg/mL
same,MIC,"[4]; Clostridium difficile 2634, Table 16",1.0 µg/mL
same,MIC,"[4]; Clostridium difficile 2994, Table 14",32 µg/mL
same,MIC,"[4]; Clostridium difficile 3424-5B, Table 16",1.0 µg/mL
same,MIC,"[4]; Clostridium difficile 3816, Table 16",1.0 µg/mL
same,MIC,"[4]; Clostridium difficile 3950D, Table 16",1.0 µg/mL
same,MIC,"[4]; Clostridium difficile 6890, Table 16",1.0 µg/mL
same,MIC,"[4]; Clostridium difficile 8484, Table 16",1.0 µg/mL
same,MIC,"[4]; Clostridium difficile A-194, Table 16",1.0 µg/mL
same,MIC,"[4]; Clostridium difficile A-195, Table 16",1.0 µg/mL
same,MIC,"[4]; Clostridium difficile A-196, Table 16",1.0 µg/mL
same,MIC,"[4]; Clostridium difficile A-279, Table 16",1.0 µg/mL
same,MIC,"[4]; Clostridium difficile A-280, Table 16",1.0 µg/mL
same,MIC,"[4]; Clostridium difficile A-281, Table 16",1.0 µg/mL
same,MIC,"[4]; Clostridium difficile WAL-2112, Table 16",1.0 µg/mL
same,MIC,"[4]; Clostridium difficile WAL-3657, Table 16",1.0 µg/mL
same,MIC,"[4]; Clostridium difficile WAL-4268, Table 16",1.0 µg/mL
same,MIC,[5],4 µg/mL
same,ED50,[6],1.4 mg/kg
same,MIC,[7],2 µg/mL
same,MIC,[8],8 µg/mL
same,MIC,[9],1.0 µg/mL
same,solubility (solvents),[10],"soluble in alcohol-water mixtures, in dimethylsulfoxide, in dimethylformamide, in dimethylsulfoxide-water mixtures, in dimethylformamide-water mixtures, in dilute aqueous acid, and in dilute aqueous base"
same,MIC,[11],32 µg/mL
same,MIC,[12],32 µg/mL
same,MIC,[13],64 µg/mL
